Measurements published in US20210308077A1, “COMBINATIONS INCLUDING BETA-ADRENORECEPTOR AGONISTS FOR TREATMENT OF PARKINSON`S DISEASE AND MOVEMENT DISORDERS” (The Brigham and Women`s Hospital, Inc., priority 2017, published 2021).

Assays:
[1] = test system: NPCs carrying the SNCA triplication; experiment: MitoSox assay of mitochondria-associated superoxide in SNCA-triplication NPCs exposed to rotenone; assay type: cell-based, human; settings: 20 μM rotenone, 20 μM clenbuterol
Description: (§1) Patient-derived NPCs carrying the familial SNCA triplication were generated as described previously (28). NPCs were seeded at […] in 96-well plates (Greiner Cellcoat μClear) for HTS plate reader analysis (Polarstar Omega, BMG). For experiments with toxicants and inhibitors, NPCs were cultured under the following conditions for 18 hours unless specified differently in the experiment procedures: Standard NPC growth medium, growth medium plus 20 μM rotenone (Sigma).
For the Plate Reader HTS, each experiment was conducted with 6 replicates per cell line and treatment regimen. NPCs were treated with 20 μM clenbuterol for four days. Signals from individual wells were acquired with integration of fluorescence signals over 1 second duration by bottom read in orbital mode (8-spot measurements with 2 mm radius). […]
For the MitoSox assay for the detection of mitochondria-associated superoxide levels, adherent NPCs in 96-well plates were incubated with 2 μM MitoSOX™ (Ex./Em. 510/580 nm) and MitoTracker® Green (485/520 nm) (both Life Technologies) in high glucose without phenol red (Life Technologies), containing supplements without antioxidants (Life Technologies) for 15 min at 37° C. in the dark. […] Fluorescence was detected by sequential readings, and MitoSOX™ signals were normalized to mitochondrial content (Mitotracker®) and cell number (Hoechst).

[2] = test system: MPTP mouse model; experiment: controlled trial in the MPTP mouse model; assay type: in vivo; settings: MPTP 20 mg/kg i.p. five days; clenbuterol 10 mg/kg i.p. once then oral gavage daily for two weeks
Description: Male C57bl/6 mice (8-10 weeks old) were analyzed. N-methyl-4-phenyl-1,2,3,6-tetrahydropyridine (MPTP-HCl; 20 mg/kg, measured as free base; Sigma, St. Louis, Mo.) was administered to mice intraperitoneally once per day for five consecutive days similar to described previously (26,36). Eight MPTP-treated mice assigned to the clenbuterol treatment group received one 10 mg/kg i.p. injection of clenbuterol (two days prior to MPTP treatment start) and then clenbuterol via oral gavage (10 mg/kg) daily for two weeks (starting on the day of the first MPTP treatment). Another eight MPTP-treated mice assigned to the vehicle treatment group received only oral drinking water (without clenbuterol). […]
After overnight postfixation in 4% paraformaldehyde, brains were cryoprotected in 30% sucrose before cryosectioning into […] (used for stereology) free-floating sections, obtained as described previously (36). […] TH+ cells were analyzed by sterological estimates as described previously (36). Briefly, the total number of TH+neurons in the SNc was calculated by optical fractionation using Stereo Investigator (version 6; MicroBrightField, Williston, Vt.). […] Total number of TH+ neurons was determined using the optical fractionator. Adjacent tissue was also stained using cresyl violet (Sigma, 0.01% for 5 min) to confirm cell loss as assessed by TH analysis.

[3] = test system: H3K27Ac; experiment: immunoblot with antibody against H3K27Ac in SK-N-MC cells; assay type: cell-based, human; settings: vs vehicle-treated cells
Description: For western blot analysis, protein samples (20 μg) were run on a 4-20% gradient SDS-polyacrylamide gel (Biorad) and transferred onto a polyvinylidene fluoride (PVDF) membrane filter (0.2 μm; Biorad) using an electroblot apparatus (Bio-Rad, Hercules, Calif.) at 100V for 1 h in transfer buffer (25 mM Tris-HCl, 192 mM glycine, 0.1% SDS, 20% (v/v) methanol). The membrane was incubated in blocking solution (50 mM Tris-HCl, 200 mM NaCl, 1 mM MgCl2, pH 7.4) containing 5% non-fat dry milk powder for 1 hour at room temperature. The membrane was processed through sequential incubations with primary antibody overnight at 4° C. followed by incubation with horseradish peroxidase-conjugated species specific secondary antibody at 1:250 dilutions (Thermo Scientific Pierce). Immunoreactive proteins on the membrane were visualized using the SuperSignal™ West Pico Chemiluminescent kit (Thermo Scientific Pierce). Scanned western blots were analyzed using ImageJ software, version 1.47. Pictures were inverted and usually the background signal from an empty lane was subtracted to obtain specific signals for each lane.

[4] = test system: NPCs carrying the SNCA triplication; experiment: Resazurin viability assay in SNCA-triplication NPCs exposed to rotenone; assay type: cell-based, human; settings: 20 μM rotenone, 20 μM clenbuterol
Description: as §1
For the Plate Reader HTS, each experiment was conducted with 6 replicates per cell line and treatment regimen. NPCs were treated with 20 μM clenbuterol for four days. Signals from individual wells were acquired with integration of fluorescence signals over 1 second duration by bottom read in orbital mode (8-spot measurements with 2 mm radius). Data analysis was performed using BMG Mars software. For data analysis of individual experiments, the mean±SD was plotted using GraphPad7. Non-directional Student's t-test was used for direct statistical comparisons. […]
For the Resazurin assay for reduction potential by NADPH levels, NPCs were prepared as above and then loaded with 3 μM C12-Resazurin (Ex/Em: 563 nm/587 nm) (Life Technologies) in medium (see above), for 30 min at 37° C. […] Relative C12-Resazurin fluorescence intensities were normalized to Hoechst 33342 fluorescence.

Structure (SMILES): CC(C)(C)NCC(O)c1cc(Cl)c(N)c(Cl)c1 (centres unmarked) [clenbuterol]
- mitochondria associated superoxide production [1]: ameliorated this increased mitochondria associated superoxide production
- TH+ neurons in the SNpc [2]: abrogated the MPTP-induced loss of TH+ neurons
- cresyl-violet (CV) stained cells in the SNpc [2]: blocked the loss of cresyl-violet (CV) stained cells
- H3K27Ac levels (Western blotting) [3]: decreased
- viability [4]: rescued viability
